According to patent US11447533B2, “Antimicrobial and anticancer peptides and conjugates and compositions, methods, articles and kits relating thereto” (George Mason Research Foundation, Inc., priority 2018, dated 2022):
Entries after “also recorded” stand apart in the source; their conditions may differ.

Key:
[1] = system: E. coli ATCC 25922; assay: Antimicrobial efficacy (resazurin virtual colony count); format: cell-based, Escherichia coli; settings: for increase of EC50 in presence of albumin relative to EC50 in DPBS: DPBS + 4% (w/v) bovine serum albumin versus DPBS; for decrease of efficacy in DPBS relative to 10 mM Na-PO4: DPBS versus 10 mM Na-PO4; for decrease of efficacy under physiologically relevant ionic conditions: PBS versus low ionic conditions
[2] = system: E. coli ML35p outer membrane; assay: NPN assay, outer membrane perturbation; format: cell-based, Escherichia coli; settings: 25 μM peptide, 25 μM PMB = 100%
Description: Interactions with Bacterial Membranes. Interaction of the peptides with bacterial membranes in different phosphate buffers were evaluated using E. coli ML35p, constructed in our laboratory. At first, competent cells of E. coli ML35 were produced by conventional competent cell preparation method, then transformed with pBR322 plasmid. Transformed colonies were selected after growing on Luria-agar containing 50 μg/mL ampicillin. A single transformed colony was grown in presence of ampicillin first in Luria broth and then in MHBII and stored as 20% glycerol stock at −80° C. This frozen stock, on the day of the experiment, was thawed and grown in MHBII containing ampicillin up to OD600 nm=0.8-0.9, washed with PBS and then suspended in the respective buffer up to the required OD600 nm for use.
NPN Assay. The outer membrane perturbation of bacteria was evaluated by incubating E. coli ML35p with peptides in presence of NPN. 100 mM NPN in acetone was supplemented proportionately to a bacterial suspension of OD600 nm˜0.5 to achieve a final concentration of 20 μM of NPN and the mixture was equilibrated for 30 mins. Then, 90 μL of the bacterial suspension containing 20 μM NPN was added with 10 μL of 250 μM peptide (10×) solution in water and scanned for fluorescence intensity (excitation=350 nm, emission=420 nm). The % Perturbation was calculated by considering PMB to be causing 100% Perturbation and water (without peptide) as 0% Perturbation. Each peptide was tested in triplicate in each of the three phosphate buffers used.
When peptides partition from the bulk aqueous environment to the cellular membranes, they may cause small defects in the membrane organization, a signature of adsorption of the peptides into the membranes. Such small defects are called membrane perturbations and can be evaluated by utilizing molecular probes. One such molecular probe is NPN, which is a hydrophobic molecule and is usually repelled to enter the hydrophobic interiors of the membrane by the polar headgroups of membrane-lipids. However, when small defects and gaps are caused during the adsorption of the peptides into the membranes, NPN can enter through those defects and in the hydrophobic environment of the membrane interior the molecule fluoresces, which can be measured for quantification of the extent of membrane-perturbation and peptide adsorption in the cellular membrane.

[3] = DPBS (with Ca++ and Mg++), pH 7.4
[4] = PBS (high / physiologically relevant ionic strength), pH 7.4

Row | Sequence | antimicrobial efficacy, in words [1, 3] | antimicrobial efficacy, in words [1, 4] | membrane perturbation with respect to PMB ([2]; DPBS) | membrane perturbation with respect to PMB ([2]; PBS) | increase of EC50 in presence of albumin relative to EC50 in DPBS [1] | decrease of efficacy in DPBS relative to 10 mM Na-PO4 [1] | decrease of efficacy under physiologically relevant ionic conditions [1] | membrane perturbation with respect to PMB ([2]; 10 mM phosphate buffer) | antimicrobial efficacy, in words ([1]; serum) | membrane perturbation with respect to PMB ([2]; DPBS, listed as ATRA-R3W2) [%]
1 | KRAKKFFKKLK (SEQ ID NO: 4) [ATRA1-A] | lose activity in DPBS | retained some antimicrobial activity | less effective at perturbing the outer membrane than ATRA-1 |  |  |  |  |  |  | 
2 | KRAKKFFKRLK (SEQ ID NO: 6) [ATRA1-AR] |  | completely ineffective |  | decreased slightly |  |  |  |  |  | 
3 | KRFKKFFKKLK (SEQ ID NO: 2) [ATRA1, first 11 residues of NA-CATH] | lose activity in DPBS; also recorded: lost antimicrobial property | effective in PBS | less than 50% | perturbed comparable to PMB |  |  |  |  |  | 
4 | KRFKKFFKKLKGGVIGVTFPF (SEQ ID NO: 38) [ATRA1-HYD, ATRA1 with hydrophobic tail of NA-CATH joined at the C-terminus by a short -GG- segment] |  |  | ~75% |  | approximately 2 fold | ~10 fold |  |  |  | 
5 | KRFKKFFKKLKNSVKKRAKKFFKKPK (SEQ ID NO: 53) [NA-CATH26, first 26 residues of NA-CATH] |  |  |  | perturbed outer membrane greater than PMB |  | ~14 fold | approximately 2 fold | higher degree of membrane perturbations than PMB |  | 
6 | KRWKKWWKKWK (SEQ ID NO: 14) [ATRA1-W4] | most effective in DPBS |  | higher OM perturbation than ATRA1 |  |  |  |  |  |  | 
7 | RRFKRFFKRLK (SEQ ID NO: 9) [ATRA1-R3] | significantly reduced in DPBS relative to its activity in PBS |  | higher OM perturbation than ATRA1 |  |  |  |  |  |  | 
8 | RRFRRFFRRLR (SEQ ID NO: 10) [ATRA1-R6] | highly effective in DPBS |  | higher OM perturbation than ATRA1 | decreased slightly |  |  |  |  |  | 
9 | RRWKRFFKRWK (SEQ ID NO: 15) [ATRA1-R3W2] | more effective than either of its parent peptides |  | higher OM perturbation than ATRA1 | perturbed comparable to PMB | ~5 fold | approximately 3 fold |  |  | no antimicrobial property | ~65
10 | RRWKRFFKRWKGGVIGVTFPF (SEQ ID NO: 50) [ATRA1-R3W2-HYD, ATRA1-R3W2 with hydrophobic tail of NA-CATH joined by -GG-] |  |  | ~100% | comparable to PMB | did not demonstrate significant changes in EC50 values |  | ~5 fold | 75% |  | 
